How the values were obtained:
Diabrotica balteata = Diabrotica balteata (corn root worm), sprayed maize sprouts, L2 larvae; type: in vivo; settings: 96 h, application rate of 200 ppm, 4 days after infestation, in comparison to untreated samples, read-out: effect in at least one of the two categories (mortality or growth inhibition)
Experimental: Example B3: Diabrotica balteata (Corn Root Worm)
Maize sprouts, placed on an agar layer in 24-well microtiter plates were treated with aqueous test solutions prepared from 10,000 ppm DMSO stock solutions by spraying. After drying, the plates were infested with L2 larvae (6 to 10 per well). The samples were assessed for mortality and growth inhibition in comparison to untreated samples 4 days after infestation.

Spodoptera littoralis = Spodoptera littoralis (Egyptian cotton leaf worm), sprayed cotton leaf discs, L1 larvae; type: in vivo; settings: foliar, 72 h, application rate of 200 ppm, 3 days after infestation, in comparison to untreated samples, read-out: control (at least one of mortality, anti-feedant effect, growth inhibition)
Experimental: Example B1: Spodoptera littoralis (Egyptian Cotton Leaf Worm)
Cotton leaf discs were placed on agar in 24-well microtiter plates and sprayed with aqueous test solutions prepared from 10,000 ppm DMSO stock solutions. After drying, the leaf discs were infested with five L1 larvae. The samples were assessed for mortality, anti-feedant effect, and growth inhibition in comparison to untreated samples 3 days after infestation. Control of Spodoptera littoralis by a test sample is when at least one of mortality, anti-feedant effect, and growth inhibition is higher than the untreated sample.

Plutella xylostella = Plutella xylostella (diamond back moth), treated artificial diet, L2 larvae; type: in vivo; settings: 120 h, application rate of 200 ppm, 5 days after infestation, in comparison to untreated samples, read-out: effect in at least one of the two categories (mortality or growth inhibition)
Experimental: Example B2: Plutella xylostella (Diamond Back Moth)
24-well microtiter plates with artificial diet were treated with aqueous test solutions prepared from 10,000 ppm DMSO stock solutions by pipetting. After drying, the plates were infested with L2 larvae (10 to 15 per well). The samples were assessed for mortality and growth inhibition in comparison to untreated samples 5 days after infestation.

melting point | Compound | percent effect (mortality or growth inhibition) at 200 ppm (Diabrotica balteata) | percent control (mortality, anti-feedant effect or growth inhibition) at 200 ppm (Spodoptera littoralis) | percent effect (mortality or growth inhibition) at 200 ppm (Plutella xylostella)
– | Cc1cccc(C)c1NC(=S)N/N=C/c1ccc2cn(-c3ccc(OC(F)(F)F)cc3)nc2c1 [Compound P1, N-(2,6-dimethylphenyl)-2-((2-(4-(trifluoromethoxy)phenyl)-2H-indazol-6-yl)methylene)hydrazinecarbothioamide] | ≥ 80% | ≥ 80% | ≥ 80%
– | CC(C)c1ccccc1NC(=S)N/N=C/c1ccc2nc(Oc3ccc(OC(F)(F)F)cc3)ccc2c1 [Compound P2, N-(2-isopropylphenyl)-2-((2-(4-(trifluoromethoxy)phenoxy)quinolin-6-yl)methylene)hydrazinecarbothioamide] | ≥ 80% | ≥ 80% | ≥ 80%
– | Cc1cccc(C)c1NC(=S)N/N=C/c1ccc2c(c1)C(=O)N(c1ccc(OC(F)(F)F)cc1)C2=O [Compound P4, 1-(2,6-dimethylphenyl)-3-[(E)-[1,3-dioxo-2-[4-(trifluoromethoxy)phenyl]isoindolin-5-yl]methyleneamino]thiourea] | – | – | ≥ 80%
239 to 240 °C | CC(C)c1ccccc1NC(=O)N/N=C/c1ccc2c(c1)C(=O)N(c1ccc(OC(F)(F)F)cc1)C2=O [Compound P6] | – | – | –
235 to 236 °C | O=C1c2ccc(/C=N/NC(=S)Nc3ccccc3C(F)(F)F)cc2C(=O)N1c1ccc(OC(F)(F)F)cc1 [Compound P11] | – | – | –
– | CC(C)c1ccccc1NC(=S)N/N=C/c1ccc2c(c1)C(=O)N(c1ccc(OC(F)(F)F)cc1)C2=O [Compound P12] | – | – | ≥ 80%
– | Cc1cccc(C)c1NC(=S)N/N=C/c1ccc2sc(-c3ccc(OC(F)(F)F)cc3)nc2c1 [Compound P13, 1-(2,6-dimethylphenyl)-3-[(E)-[2-[4-(trifluoromethoxy)phenyl]-1,3-benzothiazol-5-yl]methyleneamino]thiourea] | ≥ 80% | – | ≥ 80%
– | CC(C)c1ccccc1NC(=S)N/N=C/c1ccc2sc(-c3ccc(OC(F)(F)F)cc3)nc2c1 [Compound P14] | ≥ 80% | – | ≥ 80%
– | CC(C)c1ccccc1NC(=O)N/N=C/c1ccc2sc(-c3ccc(OC(F)(F)F)cc3)nc2c1 [Compound P15] | ≥ 80% | – | ≥ 80%
– | Cc1cccc(C)c1NC(=S)N/N=C/c1ccc2nc(-c3ccc(OC(F)(F)F)cc3)cn2c1 [Compound P17, 1-(2,6-dimethylphenyl)-3-[(E)-[2-[4-(trifluoromethoxy)phenyl]imidazo[1,2-a]pyridin-6-yl]methyleneamino]thiourea] | ≥ 80% | ≥ 80% | ≥ 80%
– | Cc1cccc(C)c1NC(=O)N/N=C/c1ccc2nc(-c3ccc(OC(F)(F)F)cc3)cn2c1 [Compound P18, 1-(2,6-dimethylphenyl)-3-[(E)-[2-[4-(trifluoromethoxy)phenyl]imidazo[1,2-a]pyridin-6-yl]methyleneamino]urea] | – | ≥ 80% | ≥ 80%
– | CC(C)c1ccccc1NC(=O)N/N=C/c1ccc2nc(-c3ccc(OC(F)(F)F)cc3)cn2c1 [Compound P19] | – | ≥ 80% | ≥ 80%
– | Cc1cccc(C)c1NC(=S)N/N=C/c1ccc2c(cnn2-c2ccc(OC(F)(F)F)cc2)c1 [Compound P21, 1-(2,6-dimethylphenyl)-3-[(E)-[1-[4-(trifluoromethoxy)phenyl]indazol-5-yl]methyleneamino]thiourea] | ≥ 80% | ≥ 80% | –
– | CC(C)c1ccccc1NC(=S)N/N=C/c1ccc2c(cnn2-c2ccc(OC(F)(F)F)cc2)c1 [Compound P22] | – | – | ≥ 80%
207 to 213 °C | CC(C)c1ccccc1NC(=O)N/N=C/c1ccc2c(cnn2-c2ccc(OC(F)(F)F)cc2)c1 [Compound P23] | – | – | –
227 to 233 °C | Cc1cccc(C)c1NC(=O)N/N=C/c1ccc2c(cnn2-c2ccc(OC(F)(F)F)cc2)c1 [Compound P24, 1-(2,6-dimethylphenyl)-3-[(E)-[1-[4-(trifluoromethoxy)phenyl]indazol-5-yl]methyleneamino]urea] | – | – | –
225 to 234 °C | Cc1cccc(C)c1NC(=S)N/N=C/c1ccc2nn(-c3ccc(OC(F)(F)F)cc3)cc2c1 [Compound P25, 1-(2,6-dimethylphenyl)-3-[(E)-[2-[4-(trifluoromethoxy)phenyl]indazol-5-yl]methyleneamino]thiourea] | – | – | –
– | Cc1cccc(C)c1NC(=O)N/N=C/c1ccc2c(c1)nc(-c1ccc(OC(F)(F)F)cc1)n2C [Compound P27, 1-(2,6-dimethylphenyl)-3-[(E)-[1-methyl-2-[4-(trifluoromethoxy)phenyl]benzimidazol-5-yl]methyleneamino]urea] | – | ≥ 80% | –
218 to 219 °C | Cc1cccc(C)c1NC(=O)N/N=C/c1ccc2nc(-c3ccc(OC(F)(F)F)cc3)n(C)c2c1 [Compound P28, 1-(2,6-dimethylphenyl)-3-[(E)-[3-methyl-2-[4-(trifluoromethoxy)phenyl]benzimidazol-5-yl]methyleneamino]urea] | – | – | –
– | Cc1cccc(C)c1NC(=S)N/N=C/c1ccc2c(c1)nc(-c1ccc(OC(F)(F)F)cc1)n2C [Compound P29] | ≥ 80% | ≥ 80% | ≥ 80%
– | Cc1cccc(C)c1NC(=S)N/N=C/c1ccc2nc(-c3ccc(OC(F)(F)F)cc3)n(C)c2c1 [Compound P30] | – | – | ≥ 80%
– | CC(C)c1ccccc1NC(=O)N/N=C/c1ccc2c(c1)nc(-c1ccc(OC(F)(F)F)cc1)n2C [Compound P31] | – | ≥ 80% | ≥ 80%
– | CC(C)c1ccccc1NC(=O)N/N=C/c1ccc2nc(-c3ccc(OC(F)(F)F)cc3)n(C)c2c1 [Compound P32] | – | ≥ 80% | ≥ 80%
– | CC(C)c1ccccc1NC(=S)N/N=C/c1ccc2c(c1)nc(-c1ccc(OC(F)(F)F)cc1)n2C [Compound P33] | – | ≥ 80% | ≥ 80%
– | CC(C)c1ccccc1NC(=S)N/N=C/c1ccc2nc(-c3ccc(OC(F)(F)F)cc3)n(C)c2c1 [Compound P34] | – | ≥ 80% | ≥ 80%
– | CC(C)c1ccccc1NC(=O)N/N=C/c1ccc2cn(-c3ccc(OC(F)(F)F)cc3)nc2c1 [Compound P35] | ≥ 80% | ≥ 80% | ≥ 80%
– | CC(C)c1ccccc1NC(=S)N/N=C/c1ccc2cn(-c3ccc(OC(F)(F)F)cc3)nc2c1 [Compound P36] | ≥ 80% | ≥ 80% | ≥ 80%

— patent US10721933B2, “Pesticidally active semi-carbazones and thiosemicarbazones derivatives” (Syngenta Participations AG, priority 2015, dated 2020)
